test system: tRNA analog (microhelix); assay: Aminoacylation of tRNA analog (microhelix) with flexizyme dFx, acid PAGE analysis; assay type: biochemical; conditions: 5 mM substrate, 50 mM Hepes-K pH 7.5, 50 mM MgCl2, 20% DMSO, on ice overnight, FIG. 1-1, 1-2
Experimental: (§1) In the present embodiment, a tRNA was aminoacylated with the active ester synthesized in Example 1 as a substrate using a flexizyme. In order to conveniently confirm acylation with various amino acids, the acylation reaction was performed using, instead of an initiating tRNA (tRNA^Met), a microhelix corresponding to a short analog of the initiating tRNA and the solution after the reaction was subjected to polyacrylamide gel electrophoresis analysis under acidic conditions in order to confirm the aminoacylation efficiency. The mobility of the band derived from the microhelix is slow when it has been aminoacylated. The aminoacylation efficiency can be determined by comparing the intensity of the microhelix band to that of the acylated microhelix band.
The acylation reaction was carried out overnight on ice in a 50 mM Hepes-K buffer (pH 7.5) and 50 mM MgCl2, with a 25 µM flexizyme (dFx), a 25 μM tRNA analog (microhelix) and a 5 mM substrate added to 20% DMSO. […]
(§2) The detailed procedure was as follows: 1 μL of a 500 mM Hepes-K buffer (pH 7.5), 1 μL of a 250 µM flexizyme (dFx) and 1 μL of a 250 µM tRNA analog were added to 3 μL of ultrapure water, and the mixture was heated at 95° C. for 2 minutes, and allowed to cool at room temperature for 5 minutes. […] This solution was analyzed with 20% modified PAGE (50 mM sodium acetate, 6 M urea) under acidic conditions.

Structure (SMILES)	acylation of tRNA analog by the flexizyme (aminoacylation efficiency)
NCC(=O)OCc1cc(Cl)nc(Cl)c1 [Compound No. 99, (2,6-dichloropyridin-4-yl)methyl glycinate]	efficiently acylated
CC[C@H](C)[C@H](N)C(=O)OCc1cc(Cl)nc(Cl)c1 [Compound No. 21, (2,6-dichloropyridin-4-yl)methyl L-isoleucinate]	efficiently acylated

test system: tRNA analog (microhelix); assay: Aminoacylation of tRNA analog (microhelix) with flexizyme eFx, acid PAGE analysis; assay type: biochemical; conditions: 5 mM substrate, 50 mM Hepes-K pH 7.5, 600 mM MgCl2, 20% DMSO, on ice overnight, FIG. 1-3, 1-4
Experimental: as §1
The acylation reaction was carried out overnight on ice in a 50 mM Hepes-K buffer (pH 7.5) and 600 mM MgCl2, with a 25 µM flexizyme (eFx), a 25 µM tRNA analog (microhelix) and 5 mM substrate added to 20% DMSO. […]
as §2, with “follows: 4” for “follows: 1”, “7.5), 4” for “7.5), 1”, “flexizyme (eFx)” for “flexizyme (dFx)”, “and 4” for “and 1”, “to 12” for “to 3”, “for 3” for “for 2”

Structure (SMILES)	acylation of tRNA analog by the flexizyme (aminoacylation efficiency)
N[C@@H](CCc1ccccc1)C(=O)OCC(F)(F)F [Compound No. 47, 2,2,2-trifluoroethyl (S)-2-amino-4-phenylbutanoate]	efficiently acylated

test system: not listed separately; assay: Differential scanning calorimetry (DSC) hazard determination (TDSC, QDSC; Category V Hazardous materials, self-reactive substances); assay type: physicochemical; conditions: about 2 mg, SUS pressure-resistant cell, to 500° C. at 10° C./min, nitrogen, line through 2,4-dinitrotoluene and benzoyl peroxide, on or above = hazardous, FIG. 2
Excerpt: Differential scanning calorimetry (DSC) can be used as a method for determining the hazard of an amino acid active ester (Akiyoshi et al., Netsu Sokutei 2018, 45(4), 161-167.; Sakira Kaneko, Netsu Sokutei 1995, 22(1), 36-43.). DSC is an effective means for assessing the hazard of a self-reactive substance, because it can measure the reaction starting temperature (TDSC) and the reaction heat (QDSC) with a trace amount of sample. […] In Japan, DSC is used as a test to determine whether a chemical substance falls under the Category V Hazardous materials (self-reactive substances) under the Japanese Fire Service Act.
Examples of the test for determining whether a chemical substance falls under the Category V Hazardous materials (self-reactive substances) in the Japanese Fire Service Act include a method involving using 2,4-dinitrotoluene and benzoyl peroxide as reference compounds, plotting the reference points of QDSC and TDSC for each of the compounds and drawing a straight line connecting the two points as the hazard determination line.
The QDSC and TDSC values of 2,4-dinitrotoluene (Compound No. 115) and benzoyl peroxide (Compound No. 116) were taken from the following literature: DSC Data Collection for Reactive Substances (2) (RIIS-SD-89), https://www.jniosh.johas.go.jp/publication/houkoku/houkoku_2007_03_list.html.
The detailed procedure for differential scanning calorimetry (DSC) is as follows:
The amino acid active ester (about 2 mg), which had been sealed in a SUS pressure-resistant cell, was set in a heat flux type differential scanning calorimeter, and heated to 500° C. at 10° C./min in an atmosphere of nitrogen 50 mL/min. The sealing into the cell was carried out in atmospheric air, and a blank cell was used as a reference material. The value of indium (In) measured under the same conditions was used as a standard for correction.
In FIG. 2, the dotted line indicates the hazard determination line. […] The abscissa axis indicates the log(TDSC-25) value, and the ordinate axis indicates the log QDSC value. In FIG. 2, -L-Hph-DBE_HCl indicates the hydrochloride of 3,5-dinitrobenzyl (S)-2-amino-4-phenylbutanoate (Compound No. 114), Gly-DBE_HCl indicates the hydrochloride of 3,5-dinitrobenzyl glycinate (Compound No. 112), -L-Ile-DBE_HCl indicates the hydrochloride of 3,5-dinitrobenzyl L-isoleucinate (Compound No. 111), -L-W7N-DBE_HCl indicates the hydrochloride of 3,5-dinitrobenzyl (S)-2-amino-3-(1H-pyrrolo[2,3-b]pyridin-3-yl)propanoate (Compound No. 113), -L-Ile-DCPE_HCl indicates (2,6-dichloropyridin-4-yl)methyl L-isoleucinate (Compound No. 21), -L-W7N-TEE_HCl indicates 2,2,2-trifluoroethyl (S)-2-amino-3-(1H-pyrrolo[2,3-b]pyridin-3-yl)propanoate (Compound No. 81), and Gly-DCPE_HCl indicates (2,6-dichloropyridin-4-yl)methyl glycinate (Compound No. 99).

Structure (SMILES)	position of log QDSC vs log(TDSC-25) plot relative to hazard determination line
N[C@@H](CCc1ccccc1)C(=O)OCc1cc([N+](=O)[O-])cc([N+](=O)[O-])c1 [L-Hph-DBE_HCl, 3,5-dinitrobenzyl (S)-2-amino-4-phenylbutanoate]	above the hazard determination line
CC[C@H](C)[C@H](N)C(=O)OCc1cc(Cl)nc(Cl)c1.Cl [L-Ile-DCPE_HCl, (2,6-Dichloropyridin-4-yl)methyl L-isoleucinate hydrochloride]	below the hazard determination line
N[C@@H](Cc1c[nH]c2ncccc12)C(=O)OCc1cc([N+](=O)[O-])cc([N+](=O)[O-])c1 [L-W7N-DBE_HCl, 3,5-dinitrobenzyl (S)-2-amino-3-(1H-pyrrolo[2,3-b]pyridin-3-yl)propanoate]	above the hazard determination line
CC[C@H](C)[C@H](N)C(=O)OCc1cc([N+](=O)[O-])cc([N+](=O)[O-])c1 [L-Ile-DBE_HCl, 3,5-dinitrobenzyl L-isoleucinate]	above the hazard determination line
Cl.NCC(=O)OCc1cc(Cl)nc(Cl)c1 [Gly-DCPE_HCl, (2,6-Dichloropyridin-4-yl)methyl glycinate hydrochloride]	below the hazard determination line
NCC(=O)OCc1cc([N+](=O)[O-])cc([N+](=O)[O-])c1 [Gly-DBE_HCl, 3,5-dinitrobenzyl glycinate]	above the hazard determination line
Cl.Cl.N[C@@H](Cc1c[nH]c2ncccc12)C(=O)OCC(F)(F)F [L-W7N-TEE_HCl, 2,2,2-Trifluoroethyl (S)-2-amino-3-(1H-pyrrolo[2,3-b]pyridin-3-yl)propanoate dihydrochloride]	below the hazard determination line

— patent US20260015313A1, “AMINO ACID ACTIVE ESTER AND SALT THEREOF” (PeptiDream Inc., priority 2022, published 2026)
